Source: patent US12617783B2, “Heterocyclic GLP-1R agonists” (BIOMEA FUSION, INC., priority 2024, dated 2026)
Read-outs that look alike come from different tables or passages of the source.

Target: T1, human GLP-1R (Homo sapiens, UniProt P43220)
T1 construct: host or cells: HEK293
Test: GLP-1R cAMP assay (Example B1a, HTRF, 30 min at room temperature)
Type: cell-based
In short: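 Competitive HTRF read-out of cAMP after 30 min room-temperature stimulation, BETP absent, of human GLP-1R-HEK293 cells (1,000/well) in HEPES buffer with 500 μM IBMX and 0.1% BSA. Activation normalised to GLP-1(7-37) positive control. EC50 from 4-parameter non-linear regression.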

[1] = cAMP accumulation in HEK293 expressing human GLP-1R, no BETP, 30 min room temperature (Method B1a, compounds ID 1-609), Table 1, read-out: EC50

T1 sequence (P43220 24-463): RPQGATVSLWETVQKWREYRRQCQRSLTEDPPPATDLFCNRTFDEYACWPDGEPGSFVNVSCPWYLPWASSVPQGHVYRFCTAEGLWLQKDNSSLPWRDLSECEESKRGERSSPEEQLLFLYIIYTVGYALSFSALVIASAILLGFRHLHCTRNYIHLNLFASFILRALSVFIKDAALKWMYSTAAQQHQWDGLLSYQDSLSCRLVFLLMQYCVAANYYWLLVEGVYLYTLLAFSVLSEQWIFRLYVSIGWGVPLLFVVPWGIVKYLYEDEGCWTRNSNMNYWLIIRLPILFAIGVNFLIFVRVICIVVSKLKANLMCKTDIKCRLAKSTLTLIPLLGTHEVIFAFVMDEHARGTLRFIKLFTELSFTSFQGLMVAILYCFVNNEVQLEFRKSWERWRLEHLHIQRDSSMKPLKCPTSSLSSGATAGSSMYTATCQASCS

| EC50 [1] | SMILES | also measured |
| --- | --- | --- |
| 94.8 nM | CCS(=N)(=O)c1ccc(-n2ccn(-c3c4c(nn3-c3cc(C)c(F)c(C)c3)C[C@H]3CC[C@@H]4N3C(=O)c3cc4cc([C@H]5CCOC(C)(C)C5)ccc4n3[C@@]3(c4noc(=O)[nH]4)C[C@@H]3C)c2=O)c(F)c1 (stereo partly drawn) [Compound 428, 3-((1S,2S)-1-(5-((S)-2,2-dimethyltetrahydro-2H-pyran-4-yl)-2-((4S,7R)-3-(3-(4-(ethylsulfonimidoyl)-2-fluorophenyl)-2-oxo-2,3-dihydro-1H-imidazol-1-yl)-2-(4-fluoro-3,5-dimethylphenyl)-2,4,5,6,7,8-hexahydro-4,7-epiminocyclohepta [c]pyrazole-9-carbonyl)-1H-indol-1-yl)-2-methylcyclopropyl)-1,2,4-oxadiazol-5(4H)-one] |  |
| 284 nM | Cc1cc(-n2nc3c(c2-n2ccn(-c4ccc5c(cnn5C)c4F)c2=O)CN(Cc2cc4cc([C@H]5CCOC(C)(C)C5)ccc4n2[C@@]2(c4noc(=O)[nH]4)C[C@@H]2C)CCC3)cc(C)c1F [Compound 432, 3-((1S,2S)-1-(5-((S)-2,2-dimethyltetrahydro-2H-pyran-4-yl)-2-((3-(3-(4-fluoro-1-methyl-1H-indazol-5-yl)-2-oxo-2,3-dihydro-1H-imidazol-1-yl)-2-(4-fluoro-3,5-dimethylphenyl)-2,6,7,8-tetrahydropyrazolo[4,3-c]azepin-5 (4H)-yl)methyl)-1H-indol-1-yl)-2-methylcyclopropyl)-1,2,4-oxadiazol-5(4H)-one] |  |
| 175 nM | CC[C@H]1C[C@]1(c1noc(=O)[nH]1)n1c(C(=O)N2[C@@H]3CC[C@H]2c2c(nn(-c4cc(C)c(F)c(C)c4)c2-n2ccn(-c4ccc5c(cnn5C)c4F)c2=O)C3)cc2cc([C@H]3CCOC(C)(C)C3)ccc21 [Compound 434, 3-[(1S,2S)-1-[5-[(4S)-2,2-dimethyltetrahydropyran-4-yl]-2-[(1S,8R)-4-(4-fluoro-3,5-dimethyl-phenyl)-3-[3-(4-fluoro-1-methyl-indazol-5-yl)-2-oxo-imidazol-1-yl]-4,5,11-triazatricyclo[6.2.1.02,6]undeca-2,5-diene-11-carbonyl]indol-1-yl]-2-ethyl-cyclopropyl]-4H-1,2,4-oxadiazol-5-one] |  |
| 70 nM | Cc1cc(-n2nc3c(c2-n2ccn(-c4ccc5[nH]ncc5c4F)c2=O)[C@@H]2CC[C@H](C3)N2C(=O)c2cc3cc([C@H]4CCOC5(CC5)C4)ccc3n2[C@@]2(c3noc(=O)[nH]3)C[C@@H]2C)cc(C)c1F [Compound 436, 3-((1S,2S)-1-(2-((4S,7R)-3-(3-(4-fluoro-1H-indazol-5-yl)-2-oxo-2,3-dihydro-1H-imidazol-1-yl)-2-(4-fluoro-3,5-dimethylphenyl)-2,4,5,6,7,8-hexahydro-4,7-epiminocyclohepta [c]pyrazole-9-carbonyl)-5-((S)-4-oxaspiro[2.5]octan-7-yl)-1H-indol-1-yl)-2-methylcyclopropyl)-1,2,4-oxadiazol-5 (4H)-one] |  |

The next lines start with the molecule.

| SMILES | EC50 [1] | also measured |
| --- | --- | --- |
| Cc1cc(-n2nc3c(c2-n2ccn(-c4ccn5c(cc(=O)n5C)c4F)c2=O)[C@@H]2CC[C@H](C3)N2C(=O)c2cc3cc([C@H]4CCOC(C)(C)C4)ccc3n2[C@@]2(c3noc(=O)[nH]3)C[C@@H]2C)cc(C)c1F [Compound 429, 3-((1S,2S)-1-(5-((S)-2,2-dimethyltetrahydro-2H-pyran-4-yl)-2-((4S,7R)-3-(3-(4-fluoro-1-methyl-2-oxo-1,2-dihydropyrazolo[1,5-a]pyridin-5-yl)-2-oxo-2,3-dihydro-1H-imidazol-1-yl)-2-(4-fluoro-3,5-dimethylphenyl)-2,4,5,6,7,8-hexahydro-4,7-epiminocyclohepta [c]pyrazole-9-carbonyl)-1H-indol-1-yl)-2-methylcyclopropyl)-1,2,4-oxadiazol-5(4H)-one] | 12.2 nM |  |
| Cc1cc(-n2nc3c(c2-n2ccn(-c4ccc5c(cnn5C)c4F)c2=O)[C@H]2CCC[C@@H](C3)N2C(=O)c2cc3cc([C@H]4CCOC(C)(C)C4)ccc3n2[C@@]2(c3noc(=O)[nH]3)C[C@@H]2C)cc(C)c1F [Compound 430, 3-((1S,2S)-1-(5-((S)-2,2-dimethyltetrahydro-2H-pyran-4-yl)-2-((4R,8S)-3-(3-(4-fluoro-1-methyl-1H-indazol-5-yl)-2-oxo-2,3-dihydro-1H-imidazol-1-yl)-2-(4-fluoro-3,5-dimethylphenyl)-4,5,6,7,8,9-hexahydro-2H-4,8-epiminocycloocta [c]pyrazole-10-carbonyl)-1H-indol-1-yl)-2-methylcyclopropyl)-1,2,4-oxadiazol-5 (4H)-one] | ≥ 10000 nM | potency (text to Table 1d, bridge atoms configured out of the plane or toward the reader): little or no potency |
| COc1cc2c(F)c(-n3ccn(-c4c5c(nn4-c4cc(C)c(F)c(C)c4)C[C@H]4CC[C@@H]5N4C(=O)c4cc5cc([C@H]6CCOC(C)(C)C6)ccc5n4[C@@]4(c5noc(=O)[nH]5)C[C@@H]4C)c3=O)ccn2n1 [Compound 431, 3-((1S,2S)-1-(5-((S)-2,2-dimethyltetrahydro-2H-pyran-4-yl)-2-((4S,7R)-3-(3-(4-fluoro-2-methoxypyrazolo[1,5-a]pyridin-5-yl)-2-oxo-2,3-dihydro-1H-imidazol-1-yl)-2-(4-fluoro-3,5-dimethylphenyl)-2,4,5,6,7,8-hexahydro-4,7-epiminocyclohepta [c]pyrazole-9-carbonyl)-1H-indol-1-yl)-2-methylcyclopropyl)-1,2,4-oxadiazol-5 (4H)-one] | 125 nM |  |
| Cc1cc(-n2nc3c(c2-n2ccn(-c4ccc5c(cnn5C)c4F)c2=O)[C@@H]2CCC[C@H](C3)N2C(=O)c2cc3cc([C@H]4CCOC(C)(C)C4)ccc3n2[C@@]2(c3noc(=O)[nH]3)C[C@@H]2C)cc(C)c1F [Compound 433, 3-((1S,2S)-1-(5-((S)-2,2-dimethyltetrahydro-2H-pyran-4-yl)-2-((4S,8R)-3-(3-(4-fluoro-1-methyl-1H-indazol-5-yl)-2-oxo-2,3-dihydro-1H-imidazol-1-yl)-2-(4-fluoro-3,5-dimethylphenyl)-4,5,6,7,8,9-hexahydro-2H-4,8-epiminocycloocta [c]pyrazole-10-carbonyl)-1H-indol-1-yl)-2-methylcyclopropyl)-1,2,4-oxadiazol-5 (4H)-one] | 30 nM | EC50 Ratio (Table 1d, potency ratio of stereoisomer pair (less potent / more potent isomer)): >333; EC50 (Table 1d, stereoisomer pairs, read-out: EC50): 30 nM; EC50 (text to Table 1d, bridge atoms configured into the plane or away from the reader, read-out: potency (EC50)): < 1000 nM |
| CC[C@@H]1C[C@@]1(c1noc(=O)[nH]1)n1c(C(=O)N2[C@@H]3CC[C@H]2c2c(nn(-c4cc(C)c(F)c(C)c4)c2-n2ccn(-c4ccc5c(cnn5C)c4F)c2=O)C3)cc2cc([C@H]3CCOC(C)(C)C3)ccc21 [Compound 435, 3-[(1R,2R)-1-[5-[(4S)-2,2-dimethyltetrahydropyran-4-yl]-2-[(1S,8R)-4-(4-fluoro-3,5-dimethyl-phenyl)-3-[3-(4-fluoro-1-methyl-indazol-5-yl)-2-oxo-imidazol-1-yl]-4,5,11-triazatricyclo[6.2.1.02,6]undeca-2,5-diene-11-carbonyl]indol-1-yl]-2-ethyl-cyclopropyl]-4H-1,2,4-oxadiazol-5-one] | 3870 nM |  |
| Cc1cc(-n2nc3c(c2-n2ccn(-c4ccc5cnncc5c4F)c2=O)[C@@H]2CC[C@H](C3)N2C(=O)c2cc3cc([C@H]4CCOC5(CC5)C4)ccc3n2[C@@]2(c3noc(=O)[nH]3)C[C@@H]2C)cc(C)c1F [Compound 437, 3-((1S,2S)-1-(2-((4S,7R)-2-(4-fluoro-3,5-dimethylphenyl)-3-(3-(5-fluorophthalazin-6-yl)-2-oxo-2,3-dihydro-1H-imidazol-1-yl)-2,4,5,6,7,8-hexahydro-4,7-epiminocyclohepta [c]pyrazole-9-carbonyl)-5-((S)-4-oxaspiro[2.5]octan-7-yl)-1H-indol-1-yl)-2-methylcyclopropyl)-1,2,4-oxadiazol-5 (4H)-one] | 55 nM |  |
